Test results from US8653023B1, “Dual beneficial effect of dopamine enhancing and neuroprotective actions of PKC delta inhibitors for treatment of Parkinson's disease” (Iowa State University Research Foundation, Inc., priority 2006, dated 2014).
Where two headings read alike, the source gives them in different places.

Tests used:
[1] = system: MPTP-treated C57 black mice; assay: TH protein level in SN of MPTP-treated mice (Western blot); format: in vivo; conditions: all doses of rottlerin, MPTP 30 mg/kg 5 days
Experimental: Six to 8-week-old […] mice weighing 30 g were housed in standard conditions: constant temperature (22±1° C.), humidity (relative, 30%) and a 12-h light/dark cycle, and were allowed free access to food and water. The animals and protocol procedures were approved and supervised by the Committee on Animal Care (COAC) at the Iowa State University. Rottlerin was dissolved in 1% dimethyl sulfoxide (DMSO) and was administered intraperitoneally at various doses. An equal volume of DMSO was given to controls. Rottlerin and DMSO administrations were started 24 h before the injections of the MPTP and continued for 5 days in the MPTP model. In the chronic regimens of MPTP administration, MPTP in phosphate-buffered saline (PBS) was injected intraperitoneally at doses of 30 mg/kg, once a day. Mice were sacrificed 2 days after the MPTP injections, and the striata were dissected for catecholamine analysis. […]
brain lysates containing equal amounts of protein were loaded in each lane and separated on a 10-12% SDS-PAGE gel as described previously (Kaul, Kanthasamy et al. 2003). […] Secondary antibody-bound proteins were detected using Amersham's ECL chemiluminescence kit. […] Western blot images were captured with a Kodak […] imaging system and data were analyzed using 1D Kodak imaging analysis software.

[2] = system: tyrosine hydroxylase (TH); assay: TH activity (DOPA levels after NSD-1015) in PC12 cells; format: cell-based; conditions: 2 mM NSD-1015
Experimental: PC12 cells, differentiated N27 dopaminergic cells and primary mesencephalic neurons were exposed to 1-10 μM rottlerin for the duration of the experiment. DMSO (0.01%) was used as vehicle control. PKCδ-DN- and Lac Z-expressing N27 cells were only treated with 0.01% DMSO. […] Untreated or vehicle treated cells were used as control samples.

[3] = system: tyrosine hydroxylase (TH); assay: TH activity (DOPA levels after NSD-1015) in N27 cells; format: cell-based, rat; conditions: 2 mM NSD-1015, rottlerin 3 hr vs DMSO, PKCδ-DN vs LacZ
Experimental: Plasmid pPKCδ^K376R-V5 encodes the loss of function PKCδ-V5 epitope tagged mutant protein; K376R refers to the mutation of the lysine residue at position 376 to arginine in the catalytic site resulting in inactivation of the kinase. Plasmid pLacZ-V5 encodes the β-galactosidase protein alone with a V5-epitope and is used as a vector control. N27 cells stably expressing PKCδ^K376R-V5 (herein referred to as PKCδ-DN cells) and LacZ alone-expressing cells (LacZ cells) were cultured as described previously (Kitazawa et al., 2005). PKCδ-DN or LacZ expressing N27 cells were identified by immunostaining of the C-terminal V5 epitope on expressed proteins and were differentiated with cAMP analogs (e.g. dibutyral cAMP) prior to experiments. PKCδ-DN and LacZ were also transiently expressed in mouse primary mesencephalic neurons using an AMAXA® Nucleofector™ kit (AMAXA GmbH, Germany). As described above, primary mesencephalic neurons were prepared from the midbrain of 16-18-day-old mice embryos. After digestion with trypsin-EDTA-HBSS, the primary neurons were homogenously resuspended with transfection buffer provided with the kit to a final concentration of 4-5×10^6 neurons/100 μl and mixed with 1 μg plasmid DNA encoding either PKCδ-DN-V5 or LacZ-V5. […] Transfection efficiency was >75% as determined by immunostaining of V5-expression. […]

PP2A = PP2A phosphatase activity in N27 cells (Serine/Threonine phosphatase assay kit); format: cell-based, rat; conditions: rottlerin vs DMSO, PKCδ-DN vs LacZ
Experimental: To determine PP2A phosphatase activity, we used the Serine/Threonine phosphatase assay kit from Promega. Briefly, N27 cells and substantia nigral tissue from mouse brain were homogenized in lysis buffer (25 mM Tris-HCl, 10 mM β-mercaptoethanol, 2 mM EDTA, protease inhibitor) supplied with the kit. After centrifugation, the supernatants were used for the assay. PP2A activity was determined by measuring the amount of free phosphate generated in a reaction by measuring the absorbance of a molybdate:malachite green: phosphate complex at 600 nm using the Spectramax plate reader (Molecular Devices). The effective range for the detection of phosphate released in this assay is 100-4,000 pmol of phosphate.

PKCδ [4] = target: PKCδ (Homo sapiens, UniProt Q05655); conditions: cited from earlier work
PKCα or PKCβ = conditions: cited from earlier work
PKCε, ζ, or η = conditions: cited from earlier work
CAM kinase III = CAM kinase III (Homo sapiens, UniProt O00418); conditions: cited from earlier work
SRC kinase = SRC kinase (Homo sapiens, UniProt P12931); conditions: cited from earlier work
casein kinase II = conditions: cited from earlier work
macrophages = conditions: pretreatment, cited from earlier work
dopaminergic N27 cells = conditions: cited from earlier work
PKCδ [5] = conditions: pretreatment, dose-dependent; cited from earlier work
Akt = conditions: cited from earlier work
3T3 cells = conditions: zinc deficient medium; cited from earlier work

Sequence of SRC kinase (P12931 whole entry): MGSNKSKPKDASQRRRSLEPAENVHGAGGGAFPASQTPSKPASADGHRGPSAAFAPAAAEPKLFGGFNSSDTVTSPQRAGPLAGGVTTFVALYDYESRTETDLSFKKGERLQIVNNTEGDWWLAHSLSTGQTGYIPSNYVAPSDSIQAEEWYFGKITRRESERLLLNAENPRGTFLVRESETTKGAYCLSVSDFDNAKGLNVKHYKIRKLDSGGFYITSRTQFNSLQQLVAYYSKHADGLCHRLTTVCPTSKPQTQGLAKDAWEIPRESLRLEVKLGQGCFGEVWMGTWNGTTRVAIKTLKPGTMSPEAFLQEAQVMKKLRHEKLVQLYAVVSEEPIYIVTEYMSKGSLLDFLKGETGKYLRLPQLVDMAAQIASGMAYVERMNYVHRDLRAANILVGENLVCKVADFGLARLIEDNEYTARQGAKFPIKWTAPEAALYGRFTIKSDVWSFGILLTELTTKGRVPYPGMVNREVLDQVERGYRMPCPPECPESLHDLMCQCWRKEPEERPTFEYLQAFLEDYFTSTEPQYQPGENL
Sequence of PKCδ (Homo sapiens, UniProt Q05655) (Q05655 whole entry): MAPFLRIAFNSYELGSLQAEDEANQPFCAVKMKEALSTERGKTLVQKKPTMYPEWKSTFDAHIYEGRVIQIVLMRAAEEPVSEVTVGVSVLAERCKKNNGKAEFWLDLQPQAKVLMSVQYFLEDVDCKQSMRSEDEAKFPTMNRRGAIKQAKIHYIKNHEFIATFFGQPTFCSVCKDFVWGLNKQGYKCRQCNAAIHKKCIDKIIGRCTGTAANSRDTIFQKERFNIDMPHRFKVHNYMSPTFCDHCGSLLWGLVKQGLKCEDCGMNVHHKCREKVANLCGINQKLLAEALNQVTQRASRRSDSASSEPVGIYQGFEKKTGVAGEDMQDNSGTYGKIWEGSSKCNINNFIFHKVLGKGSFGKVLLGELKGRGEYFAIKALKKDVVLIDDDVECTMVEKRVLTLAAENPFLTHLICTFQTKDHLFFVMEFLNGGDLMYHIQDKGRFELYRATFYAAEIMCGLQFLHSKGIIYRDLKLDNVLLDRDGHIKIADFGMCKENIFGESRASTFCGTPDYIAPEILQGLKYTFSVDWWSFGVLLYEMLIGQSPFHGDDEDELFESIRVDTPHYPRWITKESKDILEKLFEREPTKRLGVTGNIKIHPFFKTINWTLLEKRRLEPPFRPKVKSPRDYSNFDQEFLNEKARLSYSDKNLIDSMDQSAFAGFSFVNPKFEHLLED
Sequence of CAM kinase III (O00418 whole entry): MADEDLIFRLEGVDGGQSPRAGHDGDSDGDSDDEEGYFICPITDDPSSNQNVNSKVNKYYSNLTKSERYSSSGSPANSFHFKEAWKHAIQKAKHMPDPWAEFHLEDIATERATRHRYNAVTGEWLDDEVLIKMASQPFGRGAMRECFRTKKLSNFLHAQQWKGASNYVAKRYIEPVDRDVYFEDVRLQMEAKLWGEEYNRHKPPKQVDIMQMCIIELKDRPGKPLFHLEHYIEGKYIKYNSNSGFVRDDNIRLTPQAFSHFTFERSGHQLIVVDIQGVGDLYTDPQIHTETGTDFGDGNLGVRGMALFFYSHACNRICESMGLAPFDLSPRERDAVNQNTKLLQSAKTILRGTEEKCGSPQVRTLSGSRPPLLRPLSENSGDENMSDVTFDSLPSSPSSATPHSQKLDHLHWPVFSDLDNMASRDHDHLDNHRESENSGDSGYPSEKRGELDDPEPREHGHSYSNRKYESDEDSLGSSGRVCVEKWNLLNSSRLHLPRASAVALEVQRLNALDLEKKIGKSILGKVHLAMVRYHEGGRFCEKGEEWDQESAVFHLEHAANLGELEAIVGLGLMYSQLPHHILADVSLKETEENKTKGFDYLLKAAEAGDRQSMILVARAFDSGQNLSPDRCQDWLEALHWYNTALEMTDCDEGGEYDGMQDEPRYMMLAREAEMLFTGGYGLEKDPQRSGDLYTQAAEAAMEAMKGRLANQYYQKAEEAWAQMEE

CC(=O)c1c(O)c(C)c(O)c(Cc2c(O)c3c(c(C(=O)/C=C/c4ccccc4)c2O)OC(C)(C)C=C3)c1O [rottlerin]
TH protein level in SN [1]: attenuate loss of TH protein | TH activity ([2]; 1 μM rottlerin 3 hr): 2091.09±80.17 pg DOPA/10^6 cells/hr | TH activity ([2]; 3 μM rottlerin 3 hr): 3045±75.31 pg DOPA/10^6 cells/hr | TH activity [3]: 3025±266.7 pg DOPA/10^6 cells/hr | reduction of PP2A activity (PP2A): 31% | IC50 (PKCδ [4]): 3 to 6 µM | fold more potent on PKCδ than on PKCα or PKCβ (PKCα or PKCβ): 5- to 10 fold | fold more potent on PKCδ than on PKCε, ζ, or η (PKCε, ζ, or η): 13- to 33 fold | inhibiting concentration (CAM kinase III): 3 to 6 µM | inhibition (SRC kinase): inactive | inhibition (casein kinase II): weak inhibitor | suppression of UV-B-induced DNA fragmentation (macrophages; 1 μM): approximately 30% | suppression of UV-B-induced DNA fragmentation (macrophages; 10 μM): ~50% | H2O2 and MPP+-induced apoptotic cell death (genistein: also PKCδ cleavage, kinase activation) (dopaminergic N27 cells): dramatically inhibited | MMT induced accumulation of PKCδ cleavage product and increased kinase activity (PKCδ [5]): prevented | TPA-induced dephosphorylation of Akt (Akt): inhibited | cell number (3T3 cells): restored | proteolysis of PKC-delta, activated caspase-3 (3T3 cells): reduced or eliminated
